As a reminder, the IC50 is the concentration at which inhibition is half-maximal. A high value points to weaker potency.

The text below walks through data of ChEMBL document CHEMBL1156403, “A new dimeric dihydrochalcone and a new prenylated flavone from the bud covers of Artocarpus altilis: potent inhibitors of cathepsin K” (J Nat Prod, 2002).

The experiment deals with T1, Cathepsin K (Homo sapiens, UniProt P43235).
T1 sequence (P43235 whole entry): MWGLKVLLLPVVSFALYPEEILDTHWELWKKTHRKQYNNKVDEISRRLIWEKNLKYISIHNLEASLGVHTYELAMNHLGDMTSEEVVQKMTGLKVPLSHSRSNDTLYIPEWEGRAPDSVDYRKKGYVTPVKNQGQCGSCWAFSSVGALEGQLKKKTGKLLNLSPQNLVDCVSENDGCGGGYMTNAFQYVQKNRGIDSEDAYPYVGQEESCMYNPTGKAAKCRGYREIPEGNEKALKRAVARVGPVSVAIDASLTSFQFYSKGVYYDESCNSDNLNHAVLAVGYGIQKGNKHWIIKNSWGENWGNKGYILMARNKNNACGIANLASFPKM
Put plainly: Inhibition of cathepsin K by fluorimetric assay.

The compound `CC(C)=CCC/C(C)=C/Cc1c(CCC(=O)c2ccc(O)cc2O)ccc(O)c1O` returned an IC50 of 170 nM.
The value for `CC(C)=CCC/C(C)=C/Cc1c(CCC(=O)c2ccc(O)cc2O)cc(-c2cc(O)c(O)c(C/C=C(\C)CCC=C(C)C)c2CCC(=O)c2ccc(O)cc2O)c(O)c1O` [CYCLOALTILISIN 6] was 98 nM; that for `CC(C)=CCCC1(C)C=Cc2c(cc(O)c3c2OC(c2ccc(O)cc2)CC3=O)O1` (stereo not drawn) [CYCLOALTILISIN 7] was 840 nM.
